Laboratory results reported in patent publication US9062124B2, “GIP-based mixed agonists for treatment of metabolic disorders and obesity” (priority 2008, dated 2015).
Where a SMILES comes first, the peptide text is derived from it. Bridges are numbered along the chain shown (N, C = ends). [ ]: non-standard residue; d: D form. Aib = CC(C)(N)C(=O)O

How the values were obtained:
Format in all cases: cell-based
glucagon receptor = molecular target: T1, glucagon receptor (Homo sapiens, UniProt P47871); assay: cAMP synthesis functional assay (firefly luciferase reporter in HEK293 cells), glucagon receptor; conditions: Table 1; for Glucagon Receptor relative activity: relative to the native hormone of the indicated receptor; for EC50: Glucagon Receptor EC50, nM
T1 construct: expressed in transfected cells; host or cells: HEK293

GLP-1 receptor = molecular target: T2, GLP-1 receptor (Homo sapiens, UniProt P43220); assay: cAMP synthesis functional assay (firefly luciferase reporter in HEK293 cells), GLP-1 receptor; conditions: Table 1; for GLP-1 Receptor relative activity: relative to the native hormone of the indicated receptor; for EC50: GLP-1 Receptor EC50, nM
T2 construct: expressed in transfected cells; host or cells: HEK293

GIP receptor = molecular target: T3, GIP receptor (Homo sapiens, UniProt P48546); assay: cAMP synthesis functional assay (firefly luciferase reporter in HEK293 cells), GIP receptor; conditions: Table 1; for GIP Receptor relative activity: relative to the native hormone of the indicated receptor
T3 construct: expressed in transfected cells; host or cells: HEK293
T3 sequence (P48546 22-466): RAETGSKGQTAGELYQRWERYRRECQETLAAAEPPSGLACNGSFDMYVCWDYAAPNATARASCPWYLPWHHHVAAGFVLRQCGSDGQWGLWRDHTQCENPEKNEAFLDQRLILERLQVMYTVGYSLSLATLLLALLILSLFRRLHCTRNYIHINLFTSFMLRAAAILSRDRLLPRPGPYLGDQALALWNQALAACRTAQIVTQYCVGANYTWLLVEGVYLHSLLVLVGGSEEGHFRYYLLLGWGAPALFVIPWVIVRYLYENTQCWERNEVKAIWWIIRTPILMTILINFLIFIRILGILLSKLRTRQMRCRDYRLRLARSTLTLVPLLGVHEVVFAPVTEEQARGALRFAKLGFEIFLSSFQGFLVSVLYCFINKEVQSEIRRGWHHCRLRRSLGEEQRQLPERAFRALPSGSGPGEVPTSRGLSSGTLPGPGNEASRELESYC

T2 sequence (P43220 24-463, species assumed): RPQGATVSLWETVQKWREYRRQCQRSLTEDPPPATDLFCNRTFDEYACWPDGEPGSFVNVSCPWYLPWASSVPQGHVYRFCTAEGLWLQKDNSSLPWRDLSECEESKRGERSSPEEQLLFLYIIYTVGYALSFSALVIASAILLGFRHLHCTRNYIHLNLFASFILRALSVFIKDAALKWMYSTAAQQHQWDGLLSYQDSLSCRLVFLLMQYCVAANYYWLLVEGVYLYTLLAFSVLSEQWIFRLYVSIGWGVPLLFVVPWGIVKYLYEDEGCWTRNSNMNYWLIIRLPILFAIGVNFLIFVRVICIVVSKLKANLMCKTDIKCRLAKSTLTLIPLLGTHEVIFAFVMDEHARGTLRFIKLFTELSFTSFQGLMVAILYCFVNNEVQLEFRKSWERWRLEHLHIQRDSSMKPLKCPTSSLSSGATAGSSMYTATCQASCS
T1 sequence (P47871 26-477): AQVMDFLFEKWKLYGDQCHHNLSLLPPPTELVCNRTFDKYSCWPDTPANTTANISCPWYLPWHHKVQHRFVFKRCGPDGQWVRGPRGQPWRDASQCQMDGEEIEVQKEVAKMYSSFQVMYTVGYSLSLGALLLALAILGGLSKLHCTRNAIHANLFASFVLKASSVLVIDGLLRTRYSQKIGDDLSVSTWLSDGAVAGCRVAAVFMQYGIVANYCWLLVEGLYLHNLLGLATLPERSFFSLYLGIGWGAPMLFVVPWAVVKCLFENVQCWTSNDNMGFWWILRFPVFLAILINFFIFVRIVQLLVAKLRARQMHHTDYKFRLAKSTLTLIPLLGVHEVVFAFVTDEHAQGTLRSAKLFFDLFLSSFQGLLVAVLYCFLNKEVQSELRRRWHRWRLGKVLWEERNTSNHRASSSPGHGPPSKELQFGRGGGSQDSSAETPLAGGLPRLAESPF

SMILES	Glucagon Receptor relative activity (glucagon receptor)	GLP-1 Receptor relative activity (GLP-1 receptor)	GIP Receptor relative activity (GIP receptor)	EC50 (GLP-1 receptor)	EC50 (glucagon receptor)	EC50 (GIP receptor; GIP Receptor EC50, nM)
CC[C@H](C)[C@H](NC(=O)[C@H](CO)NC(=O)[C@H](Cc1ccc(O)cc1)NC(=O)[C@H](CC(=O)O)NC(=O)[C@H](CO)NC(=O)[C@@H](NC(=O)[C@H](Cc1ccccc1)NC(=O)[C@@H](NC(=O)CNC(=O)[C@H](CCC(N)=O)NC(=O)[C@H](CO)NC(=O)[C@@H](N)Cc1ccc(O)cc1)[C@@H](C)O)[C@@H](C)O)C(=O)N[C@@H](Cc1ccc(O)cc1)C(=O)N[C@@H](CC(C)C)C(=O)N[C@@H](CC(=O)O)C(=O)N[C@@H](CCC(=O)O)C(=O)N[C@@H](CCC(N)=O)C(=O)N[C@@H](C)C(=O)N[C@@H](C)C(=O)N[C@@H](CCCCN)C(=O)N[C@@H](CCC(=O)O)C(=O)N[C@@H](Cc1ccccc1)C(=O)N[C@H](C(=O)N[C@H]1CCC(=O)NCCCC[C@@H](C(=O)NCC(=O)NCC(=O)N2CCC[C@H]2C(=O)N[C@@H](CO)C(=O)N[C@@H](CO)C(=O)NCC(=O)N[C@@H](C)C(=O)N2CCC[C@H]2C(=O)N2CCC[C@H]2C(=O)N2CCC[C@H]2C(=O)N[C@@H](CO)C(N)=O)NC(=O)[C@H](CC(C)C)NC(=O)[C@H](CC(C)C)NC(=O)[C@H](Cc2c[nH]c3ccccc23)NC1=O)C(C)C [mt-157] (H-YSQGTFTSDYSIYLDEQAAKEFVEWLLKGGPSSGAPPPS-NH2; lactam 24-28; N-terminus assumed)	6.92%	37.04%	4.00%			
CC[C@H](C)[C@H](NC(=O)[C@H](CO)NC(=O)[C@H](Cc1ccc(O)cc1)NC(=O)[C@H](CC(=O)O)NC(=O)[C@H](CO)NC(=O)[C@@H](NC(=O)[C@H](Cc1ccccc1)NC(=O)[C@@H](NC(=O)CNC(=O)[C@H](CCC(N)=O)NC(=O)[C@H](CO)NC(=O)[C@@H](N)Cc1ccc(O)cc1)[C@@H](C)O)[C@@H](C)O)C(=O)N[C@@H](Cc1ccc(O)cc1)C(=O)N[C@@H](CC(C)C)C(=O)N[C@@H](CC(=O)O)C(=O)N[C@H]1CCC(=O)NCCCC[C@@H](C(=O)N[C@@H](CCC(=O)O)C(=O)N[C@@H](Cc2ccccc2)C(=O)N[C@H](C(=O)N[C@@H](CC(N)=O)C(=O)N[C@@H](Cc2c[nH]c3ccccc23)C(=O)N[C@@H](CC(C)C)C(=O)N[C@@H](CC(C)C)C(=O)N[C@@H](C)C(=O)NCC(N)=O)C(C)C)NC(=O)[C@H](C)NC(=O)[C@H](C)NC(=O)[C@H](CCC(N)=O)NC1=O [mt-163] (H-YSQGTFTSDYSIYLDEQAAKEFVNWLLAG-NH2; lactam 16-20; N-terminus assumed)	251.85%	30.00%	4.73%	0.04 nM		
CC[C@H](C)[C@H](NC(=O)[C@H](CO)NC(=O)[C@H](Cc1ccc(O)cc1)NC(=O)[C@H](CC(=O)O)NC(=O)[C@H](CO)NC(=O)[C@@H](NC(=O)[C@H](Cc1ccccc1)NC(=O)[C@@H](NC(=O)CNC(=O)[C@H](CCC(N)=O)NC(=O)[C@H](CO)NC(=O)[C@@H](N)Cc1ccc(O)cc1)[C@@H](C)O)[C@@H](C)O)C(=O)N[C@@H](Cc1ccc(O)cc1)C(=O)N[C@@H](CC(C)C)C(=O)N[C@@H](CC(=O)O)C(=O)N[C@@H](CCC(=O)O)C(=O)N[C@H]1CCC(=O)NCCCC[C@@H](C(=O)N[C@@H](CCC(=O)O)C(=O)N[C@@H](Cc2ccccc2)C(=O)N[C@H](C(=O)N[C@@H](CC(N)=O)C(=O)N[C@@H](Cc2c[nH]c3ccccc23)C(=O)N[C@@H](CC(C)C)C(=O)N[C@@H](CC(C)C)C(=O)N[C@@H](C)C(=O)NCC(=O)NCC(=O)N2CCC[C@H]2C(=O)N[C@@H](CO)C(=O)N[C@@H](CO)C(=O)NCC(=O)N[C@@H](C)C(=O)N2CCC[C@H]2C(=O)N2CCC[C@H]2C(=O)N2CCC[C@H]2C(=O)N[C@@H](CO)C(N)=O)C(C)C)NC(=O)[C@H](C)NC(=O)[C@H](C)NC1=O [mt-167] (H-YSQGTFTSDYSIYLDEEAAKEFVNWLLAGGPSSGAPPPS-NH2; lactam 17-20; N-terminus assumed)	34.53%	7.94%	5.01%			
CC[C@H](C)[C@H](NC(=O)[C@H](CO)NC(=O)[C@H](Cc1ccc(O)cc1)NC(=O)[C@H](CC(=O)O)NC(=O)[C@H](CO)NC(=O)[C@@H](NC(=O)[C@H](Cc1ccccc1)NC(=O)[C@@H](NC(=O)CNC(=O)[C@H](CCC(N)=O)NC(=O)[C@H](CO)NC(=O)[C@@H](N)Cc1ccc(O)cc1)[C@@H](C)O)[C@@H](C)O)C(=O)N[C@@H](Cc1ccc(O)cc1)C(=O)N[C@@H](CC(C)C)C(=O)N[C@@H](CC(=O)O)C(=O)N[C@@H](CCC(=O)O)C(=O)N[C@@H](CCC(N)=O)C(=O)N[C@H]1CCCCNC(=O)CC[C@@H](C(=O)N[C@@H](Cc2ccccc2)C(=O)N[C@H](C(=O)N[C@@H](CC(N)=O)C(=O)N[C@@H](Cc2c[nH]c3ccccc23)C(=O)N[C@@H](CC(C)C)C(=O)N[C@@H](CC(C)C)C(=O)N[C@@H](C)C(=O)NCC(=O)NCC(=O)N2CCC[C@H]2C(=O)N[C@@H](CO)C(=O)N[C@@H](CO)C(=O)NCC(=O)N[C@@H](C)C(=O)N2CCC[C@H]2C(=O)N2CCC[C@H]2C(=O)N2CCC[C@H]2C(=O)N[C@@H](CO)C(N)=O)C(C)C)NC(=O)[C@H](CCCCN)NC(=O)[C@H](C)NC1=O [mt-168] (H-YSQGTFTSDYSIYLDEQKAKEFVNWLLAGGPSSGAPPPS-NH2; lactam 18-21; N-terminus assumed)	4.79%	1.45%	0.32%		2.61 nM	
CC[C@H](C)[C@H](NC(=O)[C@H](CO)NC(=O)[C@H](Cc1ccc(O)cc1)NC(=O)[C@H](CC(=O)O)NC(=O)[C@H](CO)NC(=O)[C@@H](NC(=O)[C@H](Cc1ccccc1)NC(=O)[C@@H](NC(=O)CNC(=O)[C@H](CCC(N)=O)NC(=O)C(C)(C)N)[C@@H](C)O)[C@@H](C)O)C(=O)N[C@@H](Cc1ccc(O)cc1)C(=O)N[C@@H](CC(C)C)C(=O)N[C@@H](CC(=O)O)C(=O)N[C@H]1CCC(=O)NCCCC[C@@H](C(=O)N[C@@H](CCC(=O)O)C(=O)N[C@@H](Cc2ccccc2)C(=O)N[C@H](C(=O)N[C@@H](CC(N)=O)C(=O)N[C@@H](Cc2c[nH]c3ccccc23)C(=O)N[C@@H](CC(C)C)C(=O)N[C@@H](CC(C)C)C(=O)N[C@@H](C)C(=O)NCC(N)=O)C(C)C)NC(=O)[C@H](C)NC(=O)[C@H](C)NC(=O)[C@H](CCC(N)=O)NC1=O [mt-198] (H-[Aib]QGTFTSDYSIYLDEQAAKEFVNWLLAG-NH2; lactam 15-19; N-terminus assumed)	0.53%	0.17%	0.02%			
CC[C@H](C)[C@H](NC(=O)[C@H](CO)NC(=O)[C@H](Cc1ccc(O)cc1)NC(=O)[C@H](CC(=O)O)NC(=O)[C@H](CO)NC(=O)[C@@H](NC(=O)[C@H](Cc1ccccc1)NC(=O)[C@@H](NC(=O)CNC(=O)[C@H](CCC(N)=O)NC(=O)C(C)(C)NC(=O)[C@@H](N)Cc1ccc(O)cc1)[C@@H](C)O)C(C)C)C(=O)N[C@@H](Cc1ccc(O)cc1)C(=O)N[C@@H](CC(C)C)C(=O)N[C@@H](CC(=O)O)C(=O)N[C@H]1CCC(=O)NCCCC[C@@H](C(=O)N[C@@H](CCC(=O)O)C(=O)N[C@@H](Cc2ccccc2)C(=O)N[C@H](C(=O)N[C@@H](CC(N)=O)C(=O)N[C@@H](Cc2c[nH]c3ccccc23)C(=O)N[C@@H](CC(C)C)C(=O)N[C@@H](CC(C)C)C(=O)N[C@@H](C)C(=O)NCC(=O)NCC(=O)N2CCC[C@H]2C(=O)N[C@@H](CO)C(=O)N[C@@H](CO)C(=O)NCC(=O)N[C@@H](C)C(=O)N2CCC[C@H]2C(=O)N2CCC[C@H]2C(=O)N2CCC[C@H]2C(=O)N[C@@H](CO)C(=O)N[C@@H](CS)C(N)=O)C(C)C)NC(=O)[C@H](C)NC(=O)[C@H](C)NC(=O)[C@H](CCC(N)=O)NC1=O [mt-199] (H-Y[Aib]QGTFVSDYSIYLDEQAAKEFVNWLLAGGPSSGAPPPSC-NH2; lactam 16-20; N-terminus assumed)	31.31%	1.04%	5.51%	2.8 nM	0.214 nM	0.526 nM
CC(C)C[C@H](NC(=O)[C@H](CC(C)C)NC(=O)[C@H](Cc1c[nH]c2ccccc12)NC(=O)[C@H](CC(N)=O)NC(=O)[C@@H](NC(=O)[C@H](Cc1ccccc1)NC(=O)[C@H](CCC(=O)O)NC(=O)[C@@H]1CCCCNC(=O)CC[C@H](NC(=O)[C@H](CC(=O)O)NC(=O)[C@H](CC(C)C)NC(=O)[C@H](Cc2ccc(O)cc2)NC(=O)[C@@H]2CCCCNC(=O)CC[C@H](NC(=O)[C@H](CO)NC(=O)[C@@H](NC(=O)[C@H](Cc3ccccc3)NC(=O)[C@@H](NC(=O)CNC(=O)[C@H](CCC(N)=O)NC(=O)C(C)(C)NC(=O)[C@@H](N)Cc3ccc(O)cc3)[C@@H](C)O)[C@@H](C)O)C(=O)N[C@@H](Cc3ccc(O)cc3)C(=O)N[C@@H](CO)C(=O)N2)C(=O)N[C@@H](CCC(N)=O)C(=O)N[C@@H](C)C(=O)N[C@@H](C)C(=O)N1)C(C)C)C(=O)N[C@@H](C)C(=O)NCC(=O)NCC(=O)N1CCC[C@H]1C(=O)N[C@@H](CO)C(=O)N[C@@H](CO)C(=O)NCC(=O)N[C@@H](C)C(=O)N1CCC[C@H]1C(=O)N1CCC[C@H]1C(=O)N1CCC[C@H]1C(=O)N[C@@H](CO)C(=O)N[C@@H](CS)C(N)=O [mt-209] (H-Y[Aib]QGTFTSEYSKYLDEQAAKEFVNWLLAGGPSSGAPPPSC-NH2; lactam 9-12, 16-20; N-terminus assumed)	0.90%	1.33%	1.42%			
